Reference: patent US7521458B2, “Spiropiperidylrifamycins for the treatment of mycobacterial infections” (priority 2004, dated 2009)
Read-outs that look alike come from different tables or passages of the source.

Columns and labels:
Format in all cases: cell-based
[1] = test system: Mycobacterium tuberculosis 4 strains assayed; conditions: for % Sensitivity: 4 strains; for n° (sensitive strains): of 4 strains
[2] = test system: Mycobacterium tuberculosis multiresistant 17 strains assayed; conditions: for % Sensitivity: 17 strains; for n° (sensitive strains): of 17 strains
[3] = test system: multiresistant Mycobacterium tuberculosis; assay: microbe, parasite or virus in culture; conditions: for sensitivity (of strains): concentration of about 1 μg/ml, all strains of Example 34; for antimycobacterial activity compared with rifampicin and rifabutin: in vitro, in words; for MIC: Mycobacterium tuberculosis
[4] = concentration analized 0.1 μg/ml
[5] = concentration analized 0.5 μg/ml

| Molecule | % Sensitivity [1, 4] [%] | n° (sensitive strains) [1, 4] | % Sensitivity [1, 5] [%] | n° (sensitive strains) [1, 5] | % Sensitivity ([1]; concentration analized 1 μg/ml) [%] | n° (sensitive strains) ([1]; concentration analized 1 μg/ml) | % Sensitivity [2, 4] [%] | n° (sensitive strains) [2, 4] | % Sensitivity [2, 5] [%] | n° (sensitive strains) [2, 5] | % Sensitivity ([2]; concentration analized 1 μg/ml) [%] | n° (sensitive strains) ([2]; concentration analized 1 μg/ml) | sensitivity (of strains) [3] | antimycobacterial activity compared with rifampicin and rifabutin [3] | Sensitivity of strains (S/R) ([2]; concentration analized 0.2 μg/ml) | MIC [3] [µg/mL] | Sensitivity of strains (S/R) ([1]; concentration analized 1 μg/ml) | Sensitivity of strains (S/R) ([2]; concentration analized 1 μg/ml) |
| --- | --- | --- | --- | --- | --- | --- | --- | --- | --- | --- | --- | --- | --- | --- | --- | --- | --- | --- |
| 4-deoxo-3,4-[(2R)-2-spiro(2,6-diphenyl-4-piperidyl)-2,5-dihydro-1H-imidazo]rifamycin S [RFA 3M] | 25 | 1 | 50 | 2 | 100 | 4 | 23 | 4 | 75 | 13 | 94 | 16 | about 95.2% | much superior to rifampicin and to rifabutin | – | – | – | – |
| 4-deoxo-3,4-[(2R)-2-spiro[2,6-bis(4-fluorophenyl)-4-piperidil]-2,5-dihydro-1H-imidazo]rifamycin S [RFA 5M] | 25 | 1 | 50 | 2 | 100 | 4 | 17 | 3 | 82 | 14 | 100 | 17 | about 100% | much superior to rifampicin and to rifabutin | – | – | – | – |
| NNC(=O)c1ccncc1 [IZ, isoniazid] | – | – | – | – | – | – | – | – | – | – | – | – | – | – | R (R means resistent) | > 256 | – | – |
| CO[C@H]1/C=C/O[C@@]2(C)Oc3c(C)c(O)c4c(O)c(c(/C=N/N5CCN(C)CC5)c(O)c4c3C2=O)NC(=O)/C(C)=C\C=C\[C@H](C)[C@H](O)[C@@H](C)[C@@H](O)[C@@H](C)[C@H](OC(C)=O)[C@@H]1C [RI, rifampicin] | – | – | – | – | – | – | – | – | – | – | – | – | – | – | – | > 256 | R (R means resistent) | R (R means resistent) |
| CO[C@H]1/C=C/O[C@@]2(C)Oc3c(C)c(O)c4c(c3C2=O)C2=NC3(CCN(CC(C)C)CC3)NC2=C(NC(=O)/C(C)=C\C=C\[C@H](C)[C@H](O)[C@@H](C)[C@@H](O)[C@@H](C)[C@H](OC(C)=O)[C@@H]1C)C4=O [RFB, rifabutin] | – | – | – | – | – | – | – | – | – | – | – | – | about 14.3% | – | – | – | – | – |
